According to patent US12582616B2, “Molecular targets for modulation of dissociative and associative states” (The Board of Trustees of the Leland Stanford Junior …, priority 2020, dated 2026):
“Also recorded” adds a separate entry of the source.

Tests used:
Type in all cases: in vivo, mouse
mice [1] = experiment: Observation for seizure-like behavior after dissociative doses; conditions: dissociative doses of ketamine
Text: One characteristic of seizures is increased synchrony. While the ketamine-induced rhythm involved increased synchrony in neuronal firing, the initiation, spread, maintenance/termination, and behavior were distinguishable from typical seizures.

mice [2] = experiment: Righting reflex assay
Text: Righting Reflex Assay: Mice were held at the neck and tail, rotated to supine position on a flat surface, and quickly released. Time to right was quantified as moment of release to moment when all 4 legs touched the ground. A five second threshold was used to classify righting success (less than 5 seconds) from failure (more than 5 seconds). […] Illumination began for 30 seconds, and then the mouse was swiftly inverted onto the flat surface.

[3] = tested on: retrosplenial cortex (RSP); experiment: Retrosplenial gene disruption (HCN1, GRIN1) and fiber photometry
Experimental: A 405 nm and 470 nm LED illumination (Thorlabs) was combined (425 nm longpass, Thorlabs DMLP425) and coupled into a fiber optic patch cord (400 μm diameter, 0.48 NA, Doric Lenses) using a longpass dichroic (505 nm, Thorlabs DMLP505) and a fixed-focused coupler/collimator with a standard FC connector (F240FC-A, NA 0.51, f=7.9 mm)^47,48. Each illumination channel was frequency modulated using the sync output from a lock-in amplifier (SR810 DSP, Stanford Research Systems).
Analysis was performed using custom MATLAB (MathWorks) scripts. Widefield imaging videos were registered to a 2D top-projection atlas generated from the annotated Allen Brain Atlas volume, version CCFv2, in MATLAB (MathWorks), using an affine transformation computed from four manually selected control points. Each video was DF/F normalized, using the median for each pixel over the entire time series as F. The 410 nm channel was then temporally smoothed using a moving average (width=400 ms). The smoothed 410 nm DF/F signal for each pixel was regressed onto the 488 nm DF/F signal for the corresponding pixel, and the regression coefficients were used to scale the 410 nm channel to the 488 nm channel. This scaled 410 nm DF/F signal was then subtracted from the 488 nm DF/F signal to produce a normalized signal for each pixel. For quantification, activity traces were extracted from points centered in five cortical regions (visual, somatosensory, parietal, motor, retrosplenial) on the left hemisphere of the brain. The video data was Gaussian smoothed spatially (radius=2 pixels). Similarly, for fiber photometry recordings, the 410 nm signal was regressed onto the 488 nm signal, the 410 nm signal was scaled by the regression coefficients, and then subtracted from the 488 nm signal.
Stereotaxic Surgery: Adult male and female HCN1^f/f, NR1^f/f, or wildtype C57/BI6 were injected bilaterally in two retrosplenial locations (AP −3.1 and −3.4, ML+/−0.5, DV −0.5) with 1 uL of AAV8-Ef1 a-mCherry-IRES-Cre (titer 5E11) and AAVdj-Ef1a-DIO-GCaMP6m (titer 1E13). A 400-micron optical fiber was implanted over one injection location. […]

CNC1(c2ccccc2Cl)CCCCC1=O (stereo not drawn) [ketamine]
seizure-like signs (rigidity, convulsive movements, absence-like states, salivation/rearing/falling) (mice [1]): no rigidity, convulsive movements, absence-like states, or salivation/rearing/falling were observed
consciousness (spontaneous ambulation, response to external stimuli) (mice [2]; ketamine >=25 mg/kg, subanesthetic): consciousness was maintained
righting of postural inversion (mice [2]; ketamine, knockout and wild-type mice): all mice successfully-righted postural inversion
ketamine-induced RSP oscillation ([3]; local GRIN1 (NMDAR) knockout in RSP): significantly diminished; also recorded: partially attenuated; also recorded: Reduced ketamine-induced oscillation-power
ketamine-induced RSP oscillation ([3]; local HCN1 knockout in RSP): significantly diminished; also recorded: selectively abolished both the ketamine-induced rhythm and dissociation-like behavioral effects; also recorded: no longer induced the deep retrosplenial rhythm; also recorded: Reduced ketamine-induced oscillation-power
ketamine-induced RSP oscillation ([3]; wild-type): preserved in wild-type
